This is an account of results in patent US20190282701A1, “CONJUGATES OF HYALURONIC ACID AND ANTICANCER COMPOUNDS” (THE UNIVERSITY OF MANCHESTER, priority 2016, published 2019).

Data set [1] has as its system MIA PACA-2. As to the kind of experiment: hypoxic/normoxic cytotoxicity, MIA PACA-2. Format: cell-based. To be noted: Homo sapiens, survival at 72 h, n=3, conjugate as TPZ groups.
In data set [2] the test system is FaDu. Briefly: hypoxic/normoxic cytotoxicity, FaDu. Format: cell-based. The note with it: Homo sapiens, survival at 72 h, n=3, conjugate as TPZ groups.
Data set [3] has as its system HepG2. Briefly: hypoxic/normoxic cytotoxicity, HepG2. To be noted: Homo sapiens, survival at 72 h, n=3, conjugate as TPZ groups. Format: cell-based.
Data set [4] concerns Hep3B2. As to the kind of experiment: hypoxic/normoxic cytotoxicity, Hep3B2. Format: cell-based. The note with it: Homo sapiens, Hep3B, survival at 72 h, n=3, conjugate as TPZ groups.
Data set [5] has as its system SNU-423. As to the kind of experiment: hypoxic/normoxic cytotoxicity, SNU-423. Format: cell-based. The note with it: Homo sapiens, survival at 72 h, n=3, conjugate as TPZ groups.
In data set [6] the test system is MCF-7. As to the kind of experiment: hypoxic/normoxic cytotoxicity, MCF-7. Format: cell-based. The note with it: Homo sapiens, survival at 72 h, n=3, conjugate as TPZ groups.
Data set [7] relates to CAL-27. As to the kind of experiment: hypoxic/normoxic cytotoxicity, CAL-27. Format: cell-based. To be noted: Homo sapiens, survival at 72 h, n=3, conjugate as TPZ groups.
For data set [8], the system named is Calu-3. As to the kind of experiment: hypoxic/normoxic cytotoxicity, Calu-3. Format: cell-based. The note with it: Homo sapiens, survival at 72 h, n=3, conjugate as TPZ groups.
In data set [9] the test system is A549. Briefly: hypoxic/normoxic cytotoxicity, A549. Format: cell-based. To be noted: Homo sapiens, survival at 72 h, n=3, conjugate as TPZ groups.
Data set [10] deals with SKBr3. As to the kind of experiment: hypoxic/normoxic cytotoxicity, SKBr3. Format: cell-based. The note with it: Homo sapiens, survival at 72 h, n=3, conjugate as TPZ groups.
Data set [11] deals with T47D. Briefly: hypoxic/normoxic cytotoxicity, T47D. Format: cell-based. To be noted: Homo sapiens, survival at 72 h, n=3, conjugate as TPZ groups.
Data set [12] has as its system MDA-MB-468. Briefly: hypoxic/normoxic cytotoxicity, MDA-MB-468. The note with it: Homo sapiens, survival at 72 h, n=3, conjugate as TPZ groups. Format: cell-based.
Data set [13] concerns Calu-6. As to the kind of experiment: hypoxic/normoxic cytotoxicity, Calu-6. The note with it: Homo sapiens, survival at 72 h, n=3, conjugate as TPZ groups. Format: cell-based.
Data set [14] relates to MDA-MB-231. Briefly: hypoxic/normoxic cytotoxicity, MDA-MB-231. Format: cell-based. To be noted: Homo sapiens, survival at 72 h, n=3, conjugate as TPZ groups.
The test system of data set [15] is human tumoral cell lines.
Data set [16] has as its system human tumoral cell lines. Briefly: tumour cell viability assays on a panel of human cancer cell lines (overall statements, FIG. 8-10). The note with it: eight cancer cell lines, 3 h exposure, FIG. 9 and 10.
Data set [17] deals with MDA-MB-231 breast cancer cells. As to the kind of experiment: MTT toxicity of curcumin and curcumin-HAB conjugate. Format: cell-based. The procedure: MDA-MB-231 breast cancer cells were cultured in RPMI-1640 (Gibco) containing 10% FBS, 1% Pen-Strep, L-Glutamine 2 mM (medium) at 37° C. in a humidified 5% CO2 atmosphere. To determine the toxicity of curcumin and a curcumin-HAB conjugate, cells were seeded in 96-well plates at a density of 1,000 cells per well in medium and left to attach for 24 hours. Medium was then removed and replaced with medium containing various concentrations of curcumin or the curcumin-HA conjugate. […] After this time, drug containing medium was removed, replaced with fresh medium and cells incubated for a further 96 hours. […] Briefly, 50 μl of MTT solution (0.5 mg/ml in cell culture medium) was added to each well. After incubation for a further 4 h at 37° C. the medium was removed from each well and replaced with 200 μl of DMSO to dissolve the formazan crystals. The Absorbance in each well was then read at a wavelength of 450 nm using a Tecan Infinite M200 plate-reader using I-control software. The relative cell viability (%) was calculated by the formula [A]test/[A]control×100, where “[A]test” is the absorbance of the test sample, and “[A]control” is the absorbance of the control cells incubated solely with culture medium.

The conditions of data set [18]: literature; cited from earlier work.
The subject of data set [19] is C66-1 squamous nasopharynx carcinoma cells. The note with it: 72 h; cited from earlier work.
Data set [20] has as its system LNCaP tumor. As to the kind of experiment: tumor growth in LNCaP tumor-bearing athymic nude mice. Format: in vivo. The note with it: i.v. every 3 day, 21 days. The procedure: Tumor-bearing mice were prepared by injecting a suspension of LNCaP cells 1×10^6 in saline physiological solution (100 μL) into the subcutaneous dorsa of athymic nude mice (seven weeks old, 20-25 g). After fourteen days of appropriate tumor growth, LNCaP bearing mice were divided into eight groups (n=10 for each group). Treatment was initiated when the tumor volume reached 90 mm^3. The mice were then i.v. injected with 200 μL of the following solutions: […] DMSO to obtain doses of 3, 6, 25 mg/Kg, HAB to obtain a dose of 50 mg/Kg, and DMSO 11% wt. in PBS. Intravenous injections, administered in tail vein, were performed every 3 day for a total period of 21 days of treatment and then sacrificed according to ethical laws in force, following a literature method^1. The tumor size was determined by caliper measurement of the largest and perpendicular diameters during the time of treatment. Tumor volumes were calculated according to the formula: V=a×b^2×0.52, where a is the largest superficial diameter and b is the smallest superficial diameter, according to a literature procedure^17.

The test system of data set [21] is MCF7 breast cancer cells. To be noted: 72 h; cited from earlier work.
In data set [22] the test system is NCI-H209 lung cancer cells. The note with it: 24 h; cited from earlier work.
Data set [23] relates to 16-F10 melanoma cells. The note with it: 72 h; cited from earlier work.
For data set [24], the system named is HK1 squamous nasopharynx carcinoma cells. The note with it: 72 h; cited from earlier work.
Setting [25] is: MIA PaCa-2, MIA PACA-2, 0.1% O2, 3 h exposure.
Where [26] appears, read: MIA PaCa-2, MIA PACA-2, Air, 3 h exposure.
The mark [27] stands for this setting: HepG2, HepG2, 0.1% O2, 3 h exposure.
Where [28] appears, read: HepG2, HepG2, Air, 3 h exposure.
The mark [29] stands for this setting: SNU-423, SNU-423, 0.1% O2, 3 h exposure.
[30] abbreviates: SNU-423, SNU-423, Air, 3 h exposure.
Setting [31] is: MCF7, MCF-7, 0.1% O2, 3 h exposure.
Setting [32] is: CAL-27, CAL-27, 0.1% O2, 3 h exposure.
The mark [33] stands for this setting: CAL-27, CAL-27, Air, 3 h exposure.
Setting [34] is: Calu-3, Calu-3, 0.1% O2, 3 h exposure.
Where [35] appears, read: Calu-3, Calu-3, Air, 3 h exposure.
Setting [36] is: A549, A549, 0.1% O2, 3 h exposure.
The mark [37] stands for this setting: SK-BR-3, SKBr3, 0.1% O2, 3 h exposure.
The mark [38] stands for this setting: SK-BR-3, SKBr3, Air, 3 h exposure.
[39] abbreviates: MDA-MB-468, MDA-MB-468, 0.1% O2, 3 h exposure.
The mark [40] stands for this setting: MDA-MB-468, MDA-MB-468, Air, 3 h exposure.
Setting [41] is: Calu-6, Calu-6, 0.1% O2, 3 h exposure.
The mark [42] stands for this setting: Calu-6, Calu-6, Air, 3 h exposure.
Where [43] appears, read: MDA-MB-231, MDA-MB-231, 0.1% O2, 3 h exposure.
Where [44] appears, read: MDA-MB-231, MDA-MB-231, Air, 3 h exposure.

For `Nc1n[n+]([O-])c2ccccc2[n+]1[O-]` [TPZ, tirapazamine], the half-inhibitory concentration (IC50) in [1] (setting [25]) turned out to be 15.3 ± 2.5 µM; in [1] (setting [26]) it was 270 ± 10 µM; in data set [2] (0.1% O2, 3 h exposure), 23.3 ± 5.4 µM; in [2] (Air, 3 h exposure) it was 383 ± 104 µM; in data set [3] (setting [27]), 13 ± 4.7 µM; in data set [3] (setting [28]) it was 228 ± 40.1 µM. Moreover, the 50% inhibitory concentration (IC50) was 31.2 ± 2.3 µM in [4] (Hep3B2, 0.1% O2, 3 h exposure); more than 500 µM in [4] (Hep3B2, Air, 3 h exposure); 40 ± 5.8 µM in [5] (setting [29]); more than 500 µM in data set [5] (setting [30]); 20 ± 2 µM in data set [6] (setting [31]); 310 ± 18.3 µM in data set [6] (MCF7, MCF-7, Air, 3 h exposure). The IC50 in data set [7] (setting [32]) was found to be 10 ± 2 µM; in data set [7] (setting [33]), 318 ± 50.2 µM; in data set [8] (setting [34]) it was 71.7 ± 4.4 µM; in data set [8] (setting [35]), 242 ± 6 µM; in [9] (setting [36]), 81.3 ± 7.2 µM; in data set [9] (A549, A549, Air, 3 h exposure) it was 585 ± 26.3 µM. The IC50 in data set [10] (setting [37]) turned out to be 6.3 ± 1.3 µM; in [10] (setting [38]), 218 ± 3.5 µM; in [11] (0.1% O2, 3 h exposure), 17.1 ± 1 µM; in [11] (Air, 3 h exposure) it was 271 ± 36.4 µM; in data set [12] (setting [39]), 7.5 ± 4.1 µM; in [12] (setting [40]), 232 ± 35 µM. Moreover, the IC50 in [13] (setting [41]) was determined as 75 ± 8.6 µM; in [13] (setting [42]), 340 ± 11.5 µM; in data set [14] (setting [43]), 30 ± 5 µM; in data set [14] (setting [44]), 341 ± 37.5 µM. Besides, the “difference between hypoxic and normoxic cytotoxicity” value in data set [15] is “larger difference between hypoxic and normoxic cytotoxicity”.

For `O=C(NCCc1ccc(O)c(O)c1)Nc1n[n+]([O-])c2ccccc2[n+]1[O-]` [TPZ-DOPA], the IC50 is 9.6 ± 3.4 µM in [1] (setting [25]); 28 ± 3.7 µM in data set [1] (setting [26]); 6.5 ± 0.9 µM in data set [2] (0.1% O2, 3 h exposure); 18 ± 2 µM in [2] (Air, 3 h exposure); 3.7 ± 0.7 µM in data set [3] (setting [27]); 13.8 ± 2.8 µM in [3] (setting [28]). Moreover, the IC50 in data set [4] (Hep3B2, 0.1% O2, 3 h exposure) is 4.8 ± 0.8 µM; in data set [4] (Hep3B2, Air, 3 h exposure) it was 21.8 ± 2.7 µM; in data set [5] (setting [29]) it was 6 ± 1 µM; in [5] (setting [30]) it was 22.5 ± 6.4 µM; in data set [6] (setting [31]), 15.4 ± 7.09 µM; in data set [6] (MCF7, MCF-7, Air, 3 h exposure), 23.1 ± 5.5 µM. Further, the IC50 is 7.5 ± 4.4 µM in data set [7] (setting [32]); 18.7 ± 3.1 µM in [7] (setting [33]); 16.7 ± 0.9 µM in data set [8] (setting [34]); 20.6 ± 1.1 µM in data set [8] (setting [35]); 42.3 ± 1.2 µM in [9] (setting [36]); 83.6 ± 3.7 µM in [9] (A549, A549, Air, 3 h exposure). The IC50 was 13 ± 1.3 µM in data set [10] (setting [37]); 17.7 ± 1.5 µM in data set [10] (setting [38]); 18 ± 3.7 µM in [11] (0.1% O2, 3 h exposure); 35.5 ± 6.4 µM in data set [11] (Air, 3 h exposure); 8.2 ± 2.6 µM in data set [12] (setting [39]); 17.5 ± 5 µM in data set [12] (setting [40]). Further, the IC50 was found to be 8.3 ± 0.9 µM in data set [13] (setting [41]), 26.7 ± 4.8 µM in data set [13] (setting [42]), 9 ± 1.4 µM in [14] (setting [43]) and 23.1 ± 5.3 µM in [14] (setting [44]). Besides, the “72 h viability under hypoxia (0.1% oxygen) vs normoxia (air)” value in data set [16] was “viability is lower under hypoxia than that under normoxia”.

Regarding `COc1cc(/C=C/C(=O)CC(=O)/C=C/c2ccc(O)c(OC)c2)ccc1O` [curcumin], the “maximum cell kill that could be achieved” value in data set [17] (MDA-MB-231, 40 μM curcumin, 3 h exposure then 96 h) is 40%. Also, the “concentration of curcumin needed for 40% cell kill” value in data set [17] (MDA-MB-231, 3 h exposure then 96 h, conjugate as curcumin contained) was 40 µM.

Take `Oc1cc(O)cc(/C=C/c2ccc(O)c(O)c2)c1` [piceatannol]: the “tissue accumulation of free drug” value in [18] was “strong renal and pulmonary accumulation”.

Take `O=c1c(O)c(-c2ccc(O)c(O)c2)oc2cc(O)cc(O)c12` [quercetin]: the concentration for half-maximal inhibition (IC50) in data set [19] was 150 to 200 µM; in data set [21], 10 µM; in [22], 5 µM; in data set [23], 20 µM; in data set [24], 150 to 200 µM. In [18], the “tissue accumulation of free drug” value is “strong renal and pulmonary accumulation”. For the same compound, the “dose of free quercetin giving results comparable to HABQ” value in [20] was found to be 25 mg/kg.
